# Test results published in PMC10913730, “Antimicrobial activity of a natural compound and analogs against multi-drug-resistant Gram-positive pathogens” (Microbiology Spectrum, 2024).
# Tests used:
# [1] = pH and Ka of 10-g/L aqueous solutions (pH meter); type: physicochemical; settings: 10-g/L solution in distilled, deionized water
# MRSA isolates = test: MIC/MBC, CLSI broth microdilution, MRSA isolates; type: cell-based, Staphylococcus aureus
# [2] = Aqueous solubility of compounds reconstituted at 10 mg/mL in water; settings: 10 mg/mL in distilled deionized water
structure (smiles),measurement,setting,value
CC(=O)Oc1c(Cl)cc(Cl)cc1-c1cc(Cl)cc(Cl)c1OC(C)=O [C59Ac],acid dissociation constant (Ka),[1],2.45 × 10^−12
same,pH of solution,[1]; room temperature,6.61
same,MBC,"MRSA isolates; MRSA 0606, pH 7.4",8 µg/mL
same,MIC,"MRSA isolates; MRSA 0606, pH 7.4",4 µg/mL
same,MBC,"MRSA isolates; MRSA 0608, pH 7.4",12 µg/mL
same,MIC,"MRSA isolates; MRSA 0608, pH 7.4",4 µg/mL
same,MBC,"MRSA isolates; MRSA 0634, pH 7.4",4 µg/mL
same,MIC,"MRSA isolates; MRSA 0634, pH 7.4",4 µg/mL
same,MBC,"MRSA isolates; MRSA 0641, pH 7.4",12 µg/mL
same,MIC,"MRSA isolates; MRSA 0641, pH 7.4",4 µg/mL
same,MBC,"MRSA isolates; MRSA 0646, pH 7.4",8 µg/mL
same,MIC,"MRSA isolates; MRSA 0646, pH 7.4",4 µg/mL
same,MBC,"MRSA isolates; TCH 1516, pH 7.4",4 µg/mL
same,MIC,"MRSA isolates; TCH 1516, pH 7.4",4 µg/mL
same,change of MIC and MBC with the reduction in pH,"MRSA isolates; six MRSA isolates, pH lowered to 5.5",remained unchanged
same,aqueous solubility,[2],moderate aqueous solubility
